{"source": "patent US20230293500A1", "about": "“AK3287 PREPARATION, AND PREPARATION METHOD THEREFOR AND APPLICATION THEREOF” (SUZHOU ARK BIOPHARMACEUTICAL CO., LTD., priority 2020, published 2023)", "assay": "PK analysis of AK3287 in plasma and skin by LC/MS after application on wound", "assay_type": "in vivo, Duroc pig", "procedure": "According to Table 4, 1 ml of the AK3287 emulsion or vehicle was administered to each of the wounds and smeared evenly on the wounds. The above administration treatment was carried out once daily. The time points for administration were set to start on Day 3 and end on Day 21.\n3. Sample and analysis of PK test:\nOn Day 4, Day 9, Day 15, and Day 21 (i.e., on Day 1, Day 6, Day 12, and Day 18 after the first administration), a piece of circular skin was obtained by surgical incision with a skin biopsy punch (10 mm), after the animal was anesthetized and before the drug was smeared. Blood was sampled from the jugular vein and prepared as plasma. A total of 48 skin samples and 48 plasma samples were collected and subjected to PK analysis by LC/MS method.", "data": [{"smiles": "Cn1cc(-c2cn(-c3ccc(OC(F)(F)F)cc3)c(=O)c3ncn(C)c23)cn1", "note": "[AK3287]", "values": [{"measurement": "amount of AK3287 entering the blood (plasma PK)", "setting": "plasma, application of emulsion on wound, FIG. 2", "result": "a small amount of AK3287 could enter the blood"}, {"measurement": "exposure in the skin, by dose group", "setting": "skin, 0.5%, 2% and 8% emulsion groups, FIG. 3", "result": "higher in the high-dose group"}, {"measurement": "distribution of AK3287 in skin tissues (skin PK)", "setting": "skin, application of emulsion on wound, FIG. 3", "result": "a majority of AK3287 remained in the skin tissues"}]}]}
